The values below come from ChEMBL document CHEMBL1201862, “PubChem BioAssay data set” (2004).

Holding throughout (experiment): NCI tumour cell line growth inhibition, 48 h
Test [1] concerns BT-549.
The test system of test [2] is DMS-273.
In test [3] the test system is SNB-78.
Test [4] relates to KM-20L2.
Test [5] concerns DMS-114.
In test [6] the test system is DLD-1.
The test system of test [7] is XF498.
The subject of test [8] is HOP-18.
In test [9] the test system is RXF 631.

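Protocol summary: plate cells (96-well), add compound at 5 concentrations, incubate 48 h, interpolate endpoints linearly. Here, GI50 denotes the concentration required for 50% inhibition of growth.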 Calls of active or inactive are those of the source. No stated cut-off is given here; in the data, active = GI50 up to about 1.1 µM and inactive = higher.

Turning to `COc1ccc2oc(=O)c(-c3nc4ccccc4o3)cc2c1`, in test [1], the GI50 was > 100 µM (inactive).

With `CCn1c2c(c3ccccc3c1=O)C(=O)c1ccccc1-2`, in test [1], the GI50 is > 100 µM (inactive).

As to `CN(C)c1ccc(-c2cc(O)c3ccccc3n2)cc1`, the GI50 in test [2], in test [3], in test [4], in test [5] and in test [6] was > 100 µM (inactive) each time.

As for `Cc1c2c(nc3ccccc13)C(=O)c1cccnc1C2=O`, the GI50 in [1] was 61.8 µM (inactive).

As to `NC(=O)NNc1nc2ccccc2c(=O)n1NC(=O)C(=O)Nc1ccc(Cl)cc1Cl`, the GI50 in test [1] was > 100 µM (inactive).

Consider `CCC1C(=O)OCc2c1cc1n(c2=O)Cc2cc3ccccc3nc2-1` (stereo not given), for which the GI50 in test [1] was 4.38 µM (inactive).

For the molecule `S=C(Nc1cccc(Cl)c1)Nc1ccccn1`, the GI50 in [1] was > 100 µM (inactive).

For `CCN1/C(=C/C#C/C(C)=C\c2sc3ccc(Cl)cc3[n+]2CC)Sc2ccc(Cl)cc21`, the GI50 in test [1] is 2.14 µM (inactive).

On to `Cc1ccc2c(ccc(/C=C/c3ccc(O)c4ncccc34)[n+]2C)c1`, for which the GI50 in test [2] is 2.07 µM (inactive); in test [3], 9.77 µM (inactive); in test [4], 4.85 µM (inactive); in test [5] it was 0.489 µM (active); in test [6], 2.72 µM (inactive); in test [7] it was 3.19 µM (inactive). Besides, the GI50 in [8] was 13.1 µM (inactive).

`CC1(C)CCCCCCCCCC2CC2CCC(C)(C)C1=O` (stereo not given): in [1], the GI50 is 34.4 µM (inactive).

Take `CCNC(=O)c1cc(/C=C/c2ccc([N+](=O)[O-])o2)nc2ccccc12`: in test [1], the GI50 is 29.8 µM (inactive).

Turning to `CNC(=S)N/N=C1\CC(c2ccccc2)Oc2ccccc21` (stereo not given), the GI50 in test [2], in test [3] and in [6] was > 100 µM (inactive) in each case.

Consider `C=CCN1CCC(O)(c2cc(C(=O)OCC)[nH]c2-c2cc(C)no2)C1` (stereo not given), for which the GI50 in test [1] was > 100 µM (inactive).

`COC(=O)c1c(C#C[Si](C)(C)C)c(C#C[Si](C)(C)C)c(C#C[Si](C)(C)C)c(C#C[Si](C)(C)C)c1C(=O)OC`: in test [1], the GI50 was > 100 µM (inactive).

Regarding `Cn1c(S)nc(C(N)=O)c1N`, the GI50 in [1] is > 100 µM (inactive).

As for `CC(=O)NC1C(OCc2ccccc2)OC(CO)C(O)C1OCC(=O)N[C@@H](C)C(=O)N[C@H](CCC(=O)NCCNc1ccc([N+](=O)[O-])c2[nH]c3ccccc3c(=O)c12)C(N)=O` (stereo not given in full), in test [1], the GI50 was 20.1 µM (inactive).

For the molecule `CC[P+]1(c2ccccc2)CCCCC1`, the GI50 in test [2], in test [3], in [9], in test [4], in [5] and in test [6] was > 100 µM (inactive) in each case. Besides, the GI50 in test [8] is > 100 µM (inactive).

In the case of `O=[N+]([O-])c1cccc(/C=N/N=c2\ccc3ccccc3[nH]2)c1O`, the GI50 in test [1] is 3.78 µM (inactive).

Take `CCCc1nc(Cl)c(Cl)c(Cl)n1`: the GI50 in test [1] was 23.2 µM (inactive).

For `Cc1nc(N)c(N2CCN(Cc3ccccc3)CC2)c(O)n1`, in [1], the GI50 is > 100 µM (inactive).

Consider `Cn1c(-c2cccs2)cc(-c2ccsc2)c1-c1cccs1`, for which the GI50 in test [1] is > 100 µM (inactive).

For the molecule `Cc1[nH]c(=O)nc(N/N=C/c2ccc(Cl)cc2)c1C(=O)Nc1ccc(Cl)cc1`, the GI50 in test [2] is 12.6 µM (inactive); in [3], > 100 µM (inactive); in [4] it was > 100 µM (inactive); in test [5] it was 18.2 µM (inactive); in [1] it was > 100 µM (inactive); in [6], > 33.7 µM (inactive). Besides, the GI50 in test [7] was 4.68 µM (inactive); in test [8], 1.22 µM (inactive).

For `Cc1cn(C2CC(OC(c3ccccc3)(c3ccccc3)c3ccccc3)C(COC(c3ccccc3)(c3ccccc3)c3ccccc3)O2)c(=O)[nH]c1=O` (stereo not given), the GI50 in test [1] is 27.5 µM (inactive).

`COc1cc(C2c3cccc4cccc(c34)C3CCC(=O)N32)cc(OC)c1O` (stereo not given): in [1], the GI50 is > 50 µM (inactive).

Take `COc1ccc(C2C3=C(COC3=O)Oc3cc4c(cc32)OCO4)cc1` (stereo not given): the GI50 in test [2] is 5.26 µM (inactive); in test [3] it was 16.6 µM (inactive); in test [4], 11.9 µM (inactive); in test [5], 4.3 µM (inactive); in [6] it was 15.4 µM (inactive); in test [7] it was 7.18 µM (inactive). Also, the GI50 in test [8] was 18.6 µM (inactive).

In the case of `N#CC(Cc1ccccc1)N(CCC1=CCCCC1)C(c1ccccc1)c1ccccc1` (stereo not given), the GI50 in test [1] was > 100 µM (inactive).

Consider `COc1cc(S(=O)(=O)Nc2ccc(-c3csc(N4C(=O)C(Cl)C4c4cccs4)n3)cc2)ccc1Cl` (stereo not given), for which the GI50 in [1] was 87.7 µM (inactive).

Regarding `O=C(O)CCC(=O)OC1N=C(c2ccccc2Cl)c2cc([N+](=O)[O-])ccc2NC1=O` (stereo not given), the GI50 in test [1] was 89.1 µM (inactive).

As to `CCSc1nc2n(c(=S)n1)CCN2C`, the results for the GI50 in test [2], in [4] and in test [5] were 18.1 µM (inactive), 20 µM (inactive) and 18.7 µM (inactive), respectively.

With `COP(=O)(OC)[C@@](O)(c1ccccc1)[C@@H](O)[C@@H](O)c1ccccc1`, in test [1], the GI50 was > 100 µM (inactive).

As to `CC(=O)OC12OC(C)(C3C(=O)N(c4ccccc4)C(=O)C31)N(c1ccccc1)C2=O` (stereo not given), the GI50 in test [1] is > 100 µM (inactive).

For `CCCCCCCCCCC[N+]1(Cc2ccccc2)CC2CCN(Cc3ccccc3)CC2C1` (stereo not given), the GI50 in test [1] was 0.305 µM (active).

On to `Cc1cc(N(CCC#N)CCC#N)ccc1/N=N/c1cccc(Cl)c1`, for which the GI50 in test [2] is 9.68 µM (inactive); in test [3], > 100 µM (inactive); in test [4], > 100 µM (inactive); in [5], 31.8 µM (inactive).

Consider `CN(C)CCN(C)C(=O)C1CCCN1C(=O)OCc1ccccc1` (stereo not given), for which the GI50 in test [2] was > 100 µM (inactive); in test [3], > 100 µM (inactive); in test [4] it was > 100 µM (inactive); in test [5], > 100 µM (inactive); in [6], 71.3 µM (inactive); in test [7], > 100 µM (inactive).

Take `COC(=O)C1CC23C4=C(CCC41)CCC1CN4CC(C)C(CC(OC(C)=O)C12COC(C)=O)C43O` (stereo not given): in test [1], the GI50 is > 100 µM (inactive).

Take `Cc1nc(C)c(N2CCN(CN)CC2)c(O)n1`: the GI50 in test [1] is > 100 µM (inactive).

As to `Cc1cccc2cc3c(ccc4ccccc43)c[n+]12`, the GI50 in test [1] was 7.08 µM (inactive).

In the case of `CC1(C)OCC([C@H]2O[C@@H](CC(=S)NCCCCCCCCCCCCNC(=S)C[C@H]3O[C@@H](C4COC(C)(C)O4)[C@H]4OC(C)(C)O[C@H]43)[C@H]3OC(C)(C)O[C@H]32)O1` (stereo not given in full), the GI50 in test [1] is 35 µM (inactive).

With `O=CN/C=C\c1cc(O)ccc1O`, the GI50 was 7.11 µM (inactive) in test [2]; 70 µM (inactive) in test [3]; 14.8 µM (inactive) in [4]; 14.5 µM (inactive) in test [5]; 14.6 µM (inactive) in [6]; 15.4 µM (inactive) in test [7]. Further, the GI50 in test [8] was 16.8 µM (inactive).

Regarding `O=C1[C@H]2C(c3ccccc3)=NN(C(=O)c3ccccc3)[C@H]2C(=O)N1c1ccccc1`, the GI50 in [2] was > 100 µM (inactive); in [5], > 100 µM (inactive); in test [6] it was > 100 µM (inactive); in test [8], 68.4 µM (inactive).

Consider `CN(C)/C=C/C=C(/C=N/S(=O)(=O)C(F)(F)F)C1C=CN(S(=O)(=O)C(F)(F)F)C=C1`, for which the GI50 in test [1] was 26.2 µM (inactive).

With `COc1ccc(N2C(=O)C3c4[nH]c5ccccc5c4C4CC(C)CC(C)C4C3C2=O)cc1` (stereo not given), the GI50 in test [2], in [3], in test [4], in [5], in [6] and in test [7] was > 100 µM (inactive) each time. Further, the GI50 in test [8] is > 100 µM (inactive).

As to `Cn1ccnc1SC(F)(F)c1nc2ccccc2o1`, the GI50 in test [1] is 46.5 µM (inactive).

On to `O=C1CSC(C(/N=N/c2ccccc2)=C2Nc3ccccc3N2)=N1`, for which the GI50 in test [2] was 20.1 µM (inactive); in [3] it was 46.8 µM (inactive); in [4], > 100 µM (inactive); in [5] it was 36.1 µM (inactive); in test [6] it was 64.3 µM (inactive); in [7] it was 27.9 µM (inactive).

With `Cc1nc2c(nc1C)-c1c(c3c(n1Cc1ccccc1)C(=O)CCC3)C(=O)C2=O`, the GI50 in [1] is 2.86 µM (inactive).

With `COP(=O)(OC)C(O)/C=C/c1ccco1` (stereo not given), the GI50 in test [1] is > 100 µM (inactive).

For the molecule `Cc1ccc(C(=O)Nc2ccc(CP(=O)(O)O)cc2)cc1NC(=O)c1cccc(NC(=O)Nc2cccc(C(=O)Nc3cc(C(=O)Nc4ccc(CP(=O)(O)O)cc4)ccc3C)c2)c1`, the GI50 in test [1] was > 100 µM (inactive).

Regarding `C=C1C(OC2O[C@@H]3O[C@@]4(C)CC[C@H]5[C@H](C)CC[C@@H](C2=C)[C@@]35O4)O[C@@H]2O[C@@]3(C)CC[C@H]4[C@H](C)CC[C@@H]1[C@@]24O3` (stereo not given in full), in [1], the GI50 is > 50 µM (inactive).

Regarding `BrC(Br)([P+](c1ccccc1)(c1ccccc1)c1ccccc1)[P+](c1ccccc1)(c1ccccc1)c1ccccc1`, the GI50 is 14.6 µM (inactive) in test [2]; 19.7 µM (inactive) in test [3]; 24.9 µM (inactive) in test [4]; 13.4 µM (inactive) in test [5]; 15.9 µM (inactive) in [6]; > 100 µM (inactive) in [8].

In the case of `O=C1Nc2ccc([N+](=O)[O-])cc2/C1=N/NC(=S)Nc1ccccc1`, the GI50 in test [1] is 3.88 µM (inactive).

With `OCC1CCC(n2cnc3c(O)ncnc32)O1` (stereo not given), the GI50 in test [2] is > 100 µM (inactive); in [4] it was > 100 µM (inactive); in test [5], > 100 µM (inactive); in test [1] it was > 1000 µM (inactive); in test [6], > 100 µM (inactive); in test [8], > 100 µM (inactive).

Take `CC(C)C1=Cc2ccc3c(c2C(=O)C1=O)CCCC3(C)C` [MILTIRONE]: the GI50 in [2] was 4.34 µM (inactive); in [3], 3.85 µM (inactive); in [4] it was 20.3 µM (inactive); in [6], 2.15 µM (inactive); in test [8] it was 2.58 µM (inactive).

As to `O=C1C=CC(=O)c2c(O)ccc(O)c21` [NAPHTHAZALIN], the GI50 in [2] was 3.17 µM (inactive); in [3], 2.25 µM (inactive); in test [4], 1.84 µM (inactive); in test [5] it was 1.8 µM (inactive); in test [1] it was 2.04 µM (inactive); in [6], 0.326 µM (active). The GI50 is 1.58 µM (inactive) in test [7] and 1.16 µM (inactive) in test [8].
